Values quoted from earlier work as cited in patent US6849609B2, “Method and composition for controlled release acarbose formulations” (priority 2001, dated 2005).

System: patients

## C[C@H]1O[C@H](O[C@H]2[C@H](O)[C@@H](O)[C@@H](O[C@H]3[C@H](O)[C@@H](O)C(O)O[C@@H]3CO)O[C@@H]2CO)[C@H](O)[C@@H](O)[C@@H]1N[C@H]1C=C(CO)[C@@H](O)[C@H](O)[C@H]1O (some centres unmarked) [Acarbose]
Acarbose alone, even when administered to patients in a fasted state
  hypoglycemia: has not been shown to cause hypoglycemia
Patients taking acarbose, shown to abate with time
  most common adverse events: flatulence, diarrhea and abdominal discomfort
